Reference: article PMC11461180, “Interaction with IP6K1 supports pyrophosphorylation of substrate proteins by the inositol pyrophosphate 5-InsP7” (Bioscience Reports, 2024)

Key:
[1] = molecular target: T1, AP3B1 (myc-tagged) (Homo sapiens, UniProt O00203); assay: pyrophosphorylation of immunoprecipitated protein, phosphorimager; assay type: biochemical; conditions: labelled compound; β-phosphate donor, covalent transfer to pSer of the protein, enzyme-independent; 6 mM MgCl2, pH 7.4, 37 °C, 15 min
T1 construct: full-length, N-terminal myc tag, expressed in HEK293T cells, immunoprecipitated on protein G-sepharose beads
T1 sequence (O00203 1-1094): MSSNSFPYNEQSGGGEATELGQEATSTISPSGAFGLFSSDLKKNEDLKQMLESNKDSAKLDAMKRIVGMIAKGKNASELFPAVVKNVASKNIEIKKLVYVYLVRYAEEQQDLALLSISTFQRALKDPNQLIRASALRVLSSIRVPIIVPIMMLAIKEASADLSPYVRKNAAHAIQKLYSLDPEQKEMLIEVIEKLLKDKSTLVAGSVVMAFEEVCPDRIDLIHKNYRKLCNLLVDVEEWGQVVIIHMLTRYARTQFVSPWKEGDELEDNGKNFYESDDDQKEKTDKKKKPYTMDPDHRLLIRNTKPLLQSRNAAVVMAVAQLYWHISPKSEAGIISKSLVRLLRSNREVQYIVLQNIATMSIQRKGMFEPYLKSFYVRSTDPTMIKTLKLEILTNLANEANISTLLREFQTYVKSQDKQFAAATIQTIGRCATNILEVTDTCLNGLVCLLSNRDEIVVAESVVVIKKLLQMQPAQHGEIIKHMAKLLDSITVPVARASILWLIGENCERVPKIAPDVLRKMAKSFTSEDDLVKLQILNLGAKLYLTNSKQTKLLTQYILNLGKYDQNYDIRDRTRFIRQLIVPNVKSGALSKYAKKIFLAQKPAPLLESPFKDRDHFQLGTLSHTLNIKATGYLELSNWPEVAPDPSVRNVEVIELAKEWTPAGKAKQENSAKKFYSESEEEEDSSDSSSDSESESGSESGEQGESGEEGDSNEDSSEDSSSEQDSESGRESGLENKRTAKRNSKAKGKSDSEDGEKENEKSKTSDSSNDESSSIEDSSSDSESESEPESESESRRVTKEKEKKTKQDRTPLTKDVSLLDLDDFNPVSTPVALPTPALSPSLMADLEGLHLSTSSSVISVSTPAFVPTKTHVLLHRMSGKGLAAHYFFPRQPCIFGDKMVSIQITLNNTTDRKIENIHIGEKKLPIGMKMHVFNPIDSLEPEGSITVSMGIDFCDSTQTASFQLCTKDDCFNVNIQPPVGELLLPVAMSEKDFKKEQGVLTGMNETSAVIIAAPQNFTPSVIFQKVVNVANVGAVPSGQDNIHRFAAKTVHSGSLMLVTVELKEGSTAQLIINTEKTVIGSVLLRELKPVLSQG

[2] = molecular target: T2, Casein Kinase II (CK2 holoenzyme) (Homo sapiens, UniProt P68400); assay: [γ-32P]ATP phosphorylation of immunoprecipitated myc-AP3B1, autoradiography; assay type: biochemical; conditions: 15 µM TBCA preincubated 30 min on ice; 500 µM Mg-ATP; enzyme form (holoenzyme or GST-CK2α) not told for the TBCA lanes
T2 construct: gene CSNK2A1; commercial recombinant holoenzyme, heterotetramer; with Casein kinase II subunit beta
T2 sequence (P68400 whole entry): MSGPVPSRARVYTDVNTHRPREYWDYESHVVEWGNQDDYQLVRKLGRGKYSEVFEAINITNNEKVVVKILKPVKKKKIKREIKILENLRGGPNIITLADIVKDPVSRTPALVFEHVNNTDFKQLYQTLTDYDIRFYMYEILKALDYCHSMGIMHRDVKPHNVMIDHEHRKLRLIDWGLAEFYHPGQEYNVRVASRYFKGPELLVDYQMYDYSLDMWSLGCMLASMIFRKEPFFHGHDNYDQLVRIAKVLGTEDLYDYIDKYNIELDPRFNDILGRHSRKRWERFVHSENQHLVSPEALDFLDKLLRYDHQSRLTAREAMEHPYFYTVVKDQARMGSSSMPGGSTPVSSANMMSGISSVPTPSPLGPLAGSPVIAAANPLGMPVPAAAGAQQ
T2 sequence (P67870 2-215 partner): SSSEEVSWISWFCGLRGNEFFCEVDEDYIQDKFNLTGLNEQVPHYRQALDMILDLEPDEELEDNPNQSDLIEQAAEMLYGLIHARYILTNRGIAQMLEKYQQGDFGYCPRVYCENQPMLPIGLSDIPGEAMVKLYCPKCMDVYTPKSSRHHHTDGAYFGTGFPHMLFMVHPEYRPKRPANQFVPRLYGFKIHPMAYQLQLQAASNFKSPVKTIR

| SMILES | pyrophosphorylation of immunoprecipitated protein, phosphorimager [1] | phosphorylation lowered at 15 μM [2] |
| --- | --- | --- |
| O=P(O)(O)O[C@H]1[C@@H](OP(=O)(O)O)[C@H](OP(=O)(O)O)[C@@H](OP(=O)(O)OP(=O)(O)O)[C@H](OP(=O)(O)O)[C@H]1OP(=O)(O)O [5-InsP7] | AP3B1 over-expressed under these two conditions was immunoprecipitated and incubated with radiolabeled 5-InsP7 |  |
| O=C(O)/C=C/c1cc(Br)c(Br)c(Br)c1Br [TBCA] |  | which was lowered when the CK2 inhibitor TBCA was added to the reaction |
